Structures can show the parent of a compound that is named as a salt. Where two headings read alike, the source gives them in different places.
Tests used:
[1] = In vitro metabolic stability, blood plasma; format: in vitro ADME; settings: 5 μM, 37° C.
Protocol: (§1) Pooled plasma samples from human (mixed gender), rat (mixed breed and gender) and dog (mixed breed and gender) were incubated with Compound A (5 μM) at 37° C. for 0 and 60 minutes (duplicate samples). Incubations were terminated by addition of ice-cold precipitation solvent (acetonitrile:glacial acetic acid, 9:1 v/v). Supernatants were diluted with equal volume of 0.1% formic acid and analyzed by HPLC-MS/MS. Plasma stability is reported as % parent compound at 60 minutes relative to amount of parent at 0 minutes.

S. aureus (ATCC 13709) = experiment: Mouse thigh burden model; format: in vivo; settings: for bacterial reduction vs inoculated control group: thighs at 25 hours
Protocol: Female 6-7-week old CD-1 mice were made neutropenic with cyclophosphamide (150 mg/kg, i.p.) on days 4 and 1 before i.m. inoculation with S. aureus (ATCC 13709). S. aureus inoculum was prepared by transferring colonies from 18-20-hour tryptic soy agar (TSA) cultures to sterile PBS. The density was adjusted to approximately 10^6 cfu/mL with the aid of a spectrophotometer, and the inoculum concentration was determined by the dilution plate count method. Mice were inoculated by injecting each posterior thigh with 0.1 mL of inoculum. Compound A was given to separate groups of mice (4 females/group) by i.v. bolus doses of 1 or 2 mg/kg/dose at 1 and 5, 1 and 9, or 1 and 13 hours post inoculation as shown in Table 5. A separate control group of 4 mice received the inoculum without antibiotic treatment. Compound A was dissolved 50%/50% v/v sterile USP purified water/PBS. Thighs were harvested at 25 hours after inoculation. Thigh muscle and bone tissue were homogenized, aliquots of serial dilutions were plated on TSA and incubated at 37° C. for 20 hours, and colony counts were obtained to calculate cfu/thigh.

Citrobacter freundi = experiment: MIC broth microdilution, Gram-negative clinical isolates; format: cell-based; settings: Citrobacter freundi; 2-3 isolates/organism; read-out: MIC
Protocol: (§2) Compound A was evaluated in vitro in accordance with defined CLSI documents specific to the organisms (aerobic, anaerobic or yeast) tested in this study. Ampicillin, ceftazidime, cefuroxime, ciprofloxacin, linezolid, and vancomycin were tested alongside as comparator agents for aerobic bacteria; clindamycin and metronidazole were tested as comparators for anaerobes; fluconazole was tested as a comparator for yeast isolates. Stock solutions of Compound A were prepared in dimethyl sulfoxide (DMSO). Ampicillin, ceftazidime, cefuroxime, ciprofloxacin, linezolid, vancomycin, metronidazole, clindamycin, and fluconazole were prepared each according to its manufacturer's guideline.
(§3) Minimum inhibitory concentrations (MICs) in μg/ml were determined according to CLSI guideline M7-A7 by broth microdilution. All aerobes were tested using Mueller-Hinton broth medium with the exception of Streptococcus spp., which were tested using cation-adjusted Mueller-Hinton broth supplemented with 2-5% lysed horse blood.

Providencia stuartii = experiment: as above; format: cell-based; settings: 2-3 isolates/organism, read-out: MIC
Protocol: as §2, §3

Escherichia coli = experiment: as above; format: cell-based; settings: 2-3 isolates/organism, read-out: MIC
Protocol: as §2, §3

Haemophilus influenzae = experiment: as above; format: cell-based; settings: 2-3 isolates/organism, read-out: MIC
Protocol: as §2, §3

Klebsiella pneumoniae = experiment: as above; format: cell-based; settings: 2-3 isolates/organism, read-out: MIC
Protocol: as §2, §3

Citrobacter koseri = experiment: as above; format: cell-based; settings: 2-3 isolates/organism, read-out: MIC
Protocol: as §2, §3

Enterobacter cloacae = experiment: as above; format: cell-based; settings: 2-3 isolates/organism, read-out: MIC
Protocol: as §2, §3

Acinetobacter spp. = experiment: as above; format: cell-based; settings: 2-3 isolates/organism
Protocol: as §2, §3

[2] = system: S. aureus and coagulase-negative staphylococci; experiment: MICs with Staphylococcus species with defined resistance phenotypes; format: cell-based; settings: for MIC range: in µg/mL
Protocol: Evaluation of the susceptibility profiles of Compound A against selected isolates was carried out in vitro by broth microdilution methodology using Mueller-Hinton broth medium according to CLSI document M7-A7. CLSI interpretive breakpoints were applied where applicable as directed by CLSI document M100-S17.

[3] = Saturation solubility in excipients; format: physicochemical; settings: for solubility: thermodynamic from solid
MSSA 29213 = experiment: Mouse thigh burden model against MSSA 29213; format: in vivo
S. aureus ATCC27660 = experiment: Time-kill study; format: cell-based
Protocol: Time-kill studies of Compound A versus E. coli ATCC25922, E. coli (lab strain) D31, and S. aureus ATCC27660 were determined in a standard protocol by measuring the time it takes to reduce the initial inoculums 3 log units. Three ml of cation-adjusted Mueller-Hinton medium was inoculated with 20 μL of frozen bacterial stock and incubated at 37° C. on a shaker platform (250 rpm) overnight. […] Compound A stock solution was prepared at 10 mg/mL in DMSO. Time points were collected and viable bacteria were counted on MH Agar plates after an 18 hour incubation. […] See, FIG. 1A and FIG. 1B.

[4] = Stability in presence of plasma and isolated hepatocytes; settings: multiple species
[5] = In vitro metabolic stability, blood plasma (data not shown); format: in vitro ADME
Protocol: as §1

MRSA 33591 = experiment: Mouse thigh burden model against MRSA 33591; format: in vivo
S. aureus = experiment: MIC or MIC90 vs S. aureus (selectivity table); format: cell-based; settings: Staphylococcus aureus; * marks MIC90

## N=C(N)NCCCCC(=O)Nc1cc(C(F)(F)F)cc(NC(=O)c2cc(C(=O)Nc3cc(C(F)(F)F)cc(NC(=O)CCCCNC(=N)N)c3O[C@H]3CCNC3)ncn2)c1O[C@H]1CCNC1 [Compound A, pyrimidine-4,6-dicarboxylic acid bis-{[3-(5-guanidino-pentanoylamino)-2-((R)-pyrrolidin-3-yloxy)-5-trifluoromethyl-phenyl]-amide}tetrahydrochloride]
[1]; Dog (mixed breeds), 60 minutes
  Plasma Stability (%): 100%
[1]; Human, parent at 60 minutes relative to 0 minutes
  Plasma Stability (%): 96%
[1]; Rat (mixed breeds), 60 minutes
  Plasma Stability (%): 102%
S. aureus (ATCC 13709); 2 mg/kg/dose i.v. bolus at 1 and 5 hours after inoculation
  bacterial reduction vs inoculated control group: 3.96 logs
S. aureus (ATCC 13709); 2 mg/kg/dose i.v. bolus at 1 and 9 hours after inoculation
  bacterial reduction vs inoculated control group: 3.93 logs
S. aureus (ATCC 13709); mouse
  static efficacy dose in the thigh burden model: 2 to 4 mg/kg
Citrobacter freundi
  MIC: 2 to 4 µg/mL
Providencia stuartii
  MIC: 16 to 64 µg/mL
Escherichia coli
  MIC: 1 to 2 µg/mL
Haemophilus influenzae
  MIC: 4 to 8 µg/mL
Klebsiella pneumoniae
  MIC: 1 to 2 µg/mL
Citrobacter koseri
  MIC: 1 to 2 µg/mL
Enterobacter cloacae
  MIC: 0.5 to 4 µg/mL
Acinetobacter spp.
  MIC: 4 µg/mL
[2]; DAP-NS OXA-R, 5 isolates
  MIC range: 0.5-2
[2]; Drug-suscept., 59 isolates
  MIC range: 0.25-1
[2]; LZD-NS OXA-R, 5 isolates
  MIC range: 0.5-1
[2]; OXA-R, 69 isolates
  MIC range: 0.25-2
[2]; Staphylococcus aureus, screen of 150 Staphylococci organisms
  MIC90: 0.5 to 2 µg/mL
[2]; VRSA/VISA DAP-NS OXA-R, 3 isolates
  MIC range: 0.5-1
[2]; VRSA/VISA OXA-R, 7 isolates
  MIC range: 0.5-1
[3]; 0.9% and 1.2% sodium chloride solution
  behaviour of formulation at saturation: formed a viscous yellow gel
[3]; 15% w/v glycerin in purified water, 25 °C, aqueous with cosolvent or surfactant or cyclodextrin, 15% w/v glycerin in purified water, read-out: saturation solubility at 25° C. (free base)
  solubility: 63.5 mg/mL
[3]; 15% w/v propylene glycol in purified water, 25 °C, aqueous with cosolvent or surfactant or cyclodextrin, 15% w/v propylene glycol in purified water, read-out: saturation solubility at 25° C. (free base)
  solubility: 64.9 mg/mL
[3]; 20% w/v Kleptose in purified water, 25 °C, aqueous with cosolvent or surfactant or cyclodextrin, 20% w/v Kleptose in purified water, read-out: saturation solubility at 25° C. (free base)
  solubility: 79.7 mg/mL
[3]; 20-50% w/v propylene glycol in saline
  behaviour of formulation at saturation: formation of a viscous yellow gel
[3]; 25% w/v Captisol in purified water, 25 °C, aqueous with cosolvent or surfactant or cyclodextrin, 25% w/v Captisol in purified water, read-out: saturation solubility at 25° C. (free base)
  solubility: 64.3 mg/mL
[3]; 30% w/v glycerin in purified water, 25 °C, aqueous with cosolvent or surfactant or cyclodextrin, 30% w/v glycerin in purified water, read-out: saturation solubility at 25° C. (free base)
  solubility: 63.1 mg/mL
[3]; 30% w/v propylene glycol and 5 w/v ethanol in purified water, 25 °C, aqueous with cosolvent or surfactant or cyclodextrin, 30% w/v propylene glycol and 5 w/v ethanol in purified water, read-out: saturation solubility at 25° C. (free base)
  solubility: 43.9 mg/mL
[3]; 30% w/v propylene glycol in purified water, 25 °C, aqueous with cosolvent or surfactant or cyclodextrin, 30% w/v propylene glycol in purified water, gelled during centrifugation but liquefied on standing, read-out: saturation solubility at 25° C. (free base)
  solubility: 59.1 mg/mL
[3]; 40% w/v Kleptose in purified water, 25 °C, aqueous with cosolvent or surfactant or cyclodextrin, 40% w/v Kleptose in purified water, read-out: saturation solubility at 25° C. (free base)
  solubility: 102 mg/mL
[3]; 50% w/v glycerin in purified water, 25 °C, aqueous with cosolvent or surfactant or cyclodextrin, 50% w/v glycerin in purified water, read-out: saturation solubility at 25° C. (free base)
  solubility: 56.8 mg/mL
[3]; 50% w/v propylene glycol in purified water, 25 °C, aqueous with cosolvent or surfactant or cyclodextrin, 50% w/v propylene glycol in purified water, read-out: saturation solubility at 25° C. (free base)
  solubility: 74.7 mg/mL
[3]; Citric Acid/Sodium Citrate (pH 5)
  saturation solubility at 25° C. (free base): 11.2 mg/mL
[3]; DMA, 25 °C, organic solvent or mixture, DMA, read-out: saturation solubility at 25° C. (free base)
  solubility: 0.6 mg/mL
[3]; PEG 400, 25 °C, organic solvent or mixture, PEG 400, read-out: saturation solubility at 25° C. (free base)
  solubility: 18.5 mg/mL
[3]; Tris(hydroxymethyl)aminomethane buffer, 25 °C, pH 7.4, aqueous buffer, pH 7.4, read-out: solubility
  solubility: 61.4 mg/mL
[3]; benzyl alcohol, 25 °C, organic solvent or mixture, Benzyl alcohol, read-out: saturation solubility at 25° C. (free base)
  solubility: 1.83 mg/mL
[3]; citric acid/sodium citrate buffer, 25 °C, pH 3, aqueous buffer, Citric Acid/Sodium Citrate (pH 3), read-out: saturation solubility at 25° C. (free base)
  solubility: 65.5 mg/mL
[3]; citric acid/sodium citrate buffer, 25 °C, pH 5, aqueous buffer, Citric Acid/Sodium Citrate (pH 5), read-out: saturation solubility at 25° C. (free base)
  solubility: 12.1 mg/mL
[3]; ethanol, 25 °C, organic solvent or mixture, Ethanol, read-out: saturation solubility at 25° C. (free base)
  solubility: 1.13 mg/mL
[3]; glycerin, 25 °C, organic solvent or mixture, Glycerin, read-out: saturation solubility at 25° C. (free base)
  solubility: 53 mg/mL
[3]; propylene glycol, 25 °C, organic solvent or mixture, Propylene Glycol, read-out: saturation solubility at 25° C. (free base)
  solubility: 90 mg/mL
[3]; purified water, 25 °C, water, Purified Water, read-out: saturation solubility at 25° C. (free base)
  solubility: 65 mg/mL
[3]; tris(hydroxymethyl)aminomethane HCl buffer, 25 °C, pH 7, aqueous buffer, Tris(hydroxymethyl)amino methane HCl (pH 7.0), read-out: saturation solubility at 25° C. (free base)
  solubility: 61.4 mg/mL
MSSA 29213
  efficacy in vivo: efficacious
S. aureus ATCC27660; 2×MIC
  time to reduction of 3 log10 units in the initial inoculum: 5 hours
S. aureus ATCC27660; Staphylococcus aureus, ATCC27660, MIC used in time-kill study
  MIC: 1 µg/mL
S. aureus ATCC27660; over 72 hours at 1×MIC
  re-growth in the cultures: No re-growth
[4]
  stability in the presence of plasma and isolated hepatocytes: stable
[5]; cynomolgus monkeys
  loss of compound in plasma: little to no loss
[5]; rabbits
  loss of compound in plasma: little to no loss
MRSA 33591
  efficacy in vivo: efficacious
S. aureus
  MIC90: 1 µg/mL
